Data: patent US5217960A, “Erythromycin derivatives” (priority 1991, dated 1993)
≈ marks a conversion by molar mass, not a printed value. Like-named read-outs stand apart in the source and are kept apart here.

Columns and labels:
Type in all cases: cell-based
[1] = test system: STAPHYLOCOCCUS AUREUS NCTC 10649; assay: In vitro antibacterial activity, agar dilution MIC; details: NCTC10649, 24 h
[2] = test system: KLEBSIELLA PNEUMONIAE ATCC 8045; assay: In vitro antibacterial activity, agar dilution MIC; details: ATCC8045, 24 h
[3] = test system: STAPHYLOCOCCUS AUREUS 45; assay: In vitro antibacterial activity, agar dilution MIC; details: 24 h
[4] = test system: PSEUDOMONAS AERUGINOSA BMH10; assay: In vitro antibacterial activity, agar dilution MIC; details: P. aeruginosa BMH10, BHI agar, 35-37° C., 20 to 24 hours, read-out: MIC
[5] = test system: PSEUDOMONAS AERUGINOSA K799/WT; assay: In vitro antibacterial activity, agar dilution MIC; details: P. aeruginosa K799/WT, BHI agar, 35-37° C., 20 to 24 hours
[6] = test system: ESCHERICHIA COLI H560; assay: In vitro antibacterial activity, agar dilution MIC; details: E. coli H560, BHI agar, 35-37° C., 20 to 24 hours, read-out: MIC
[7] = test system: ENTEROBACTER AEROGENES ATCC 13048; assay: In vitro antibacterial activity, agar dilution MIC; details: Klebsiella aerogenes
[8] = test system: M[…] ATCC 4698; assay: In vitro antibacterial activity, agar dilution MIC; details: Micrococcus luteus, ATCC4698, 24 h
Procedure: (§1) Representative compounds of the present invention were assayed in vitro for antibacterial activity as follows: Twelve petri dishes containing successive aqueous dilutions of the test compound mixed with 10 ml of sterilized Brain Heart Infusion (BHI) agar (Difco 0418-01-5) were prepared. Each plate was inoculated with 1:100 (or 1:10 for slow-growing strains, such as Micrococcus and Streptococcus) dilutions of up to 32 different microorganisms, using a Steers replicator block. The inoculated plates were incubated at 35°-37° C. for 20 to 24 hours. In addition, a control plate, using BHI agar containing no test compound, was prepared and incubated at the beginning and end of each test.
(§2) An additional plate containing a compound having known susceptibility patterns for the organisms being tested and belonging to the same antibiotic class as the test compound was also prepared and incubated as a further control, as well as to provide test-to-test comparability. Erythromycin A was used for this purpose.
(§3) After incubation, each disk was read. The minimum inhibitory concentration (MIC) was defined as the lowest concentration of drug yielding no growth, a slight haze, or sparsely isolated colonies on the inoculum spot as compared to the growth control. The results of this assay, shown below in Tables 1 and 2, support the conclusion that the compounds of the invention are effective antibacterial agents.

[9] = test system: PSEUDOMONAS AERUGINOSA K799/61; assay: In vitro antibacterial activity, agar dilution MIC; details: 24 h
Procedure: as §1, §2, §3

[10] = test system: EN[…] ATCC 8043; assay: In vitro antibacterial activity, agar dilution MIC; details: Enterococcus faecium, ATCC8043, 24 h
Procedure: as §1, §2, §3

[11] = test system: M[…] ATCC 9341; assay: In vitro antibacterial activity, agar dilution MIC; details: Micrococcus luteus, ATCC9341, 24 h
Procedure: as §1, §2, §3

[12] = test system: ACINETOBACTER CALCOACETICUS CMX 669; assay: In vitro antibacterial activity, agar dilution MIC; details: A. calcoaceticus CMX 669, BHI agar, 35-37° C., 20 to 24 hours
[13] = test system: ESCHERICHIA COLI JUHL; assay: microbe, parasite or virus in culture
[14] = test system: PROVIDENCIA STUARTII CMX 640; assay: microbe, parasite or virus in culture
[15] = test system: STAPHYLOCOCCUS AUREUS 1775; assay: In vitro antibacterial activity, agar dilution MIC; details: S. aureus 1775, BHI agar, 35-37° C., 20 to 24 hours, read-out: MIC
[16] = test system: ESCHERICHIA COLI KNK 437; assay: microbe, parasite or virus in culture; details: E. coli KNK 437, BHI agar, 35-37° C., 20 to 24 hours
[17] = test system: STAPHYLOCOCCUS EPIDERMIDIS 3519; assay: microbe, parasite or virus in culture; details: S. epidermidis 3519, BHI agar, 35-37° C., 20 to 24 hours, read-out: MIC
[18] = test system: STAPHYLOCOCCUS AUREUS A5177; assay: In vitro antibacterial activity, agar dilution MIC
[19] = test system: STR[…] EES61; assay: In vitro antibacterial activity, agar dilution MIC; details: Streptococcus pyogenes, 24 h
Procedure: as §1, §2
(§4) After incubation, each disk was read. The minimum inhibitory concentration (MIC) was defined as the lowest concentration of drug yielding no growth, a slight haze, or sparsely isolated colonies on the inoculum spot as compared to the growth control.

[20] = test system: STR[…] 508; assay: In vitro antibacterial activity, agar dilution MIC; details: Streptococcus agalactiae, 24 h
Procedure: as §1, §2, §4

[21] = test system: PSEUDOMONAS AERUGINOSA A5007; assay: In vitro antibacterial activity, agar dilution MIC; details: P. aeruginosa A5007, BHI agar, 35-37° C., 20 to 24 hours
[22] = test system: STAPHYLOCOCCUS AUREUS CMX 553; assay: In vitro antibacterial activity, agar dilution MIC; details: S. aureus CMX 553, BHI agar, 35-37° C., 20 to 24 hours, read-out: MIC
[23] = test system: ESCHERICHIA COLI DC-2; assay: In vitro antibacterial activity, agar dilution MIC; details: 24 h
[24] = test system: ESCHERICHIA COLI SS; assay: In vitro antibacterial activity, agar dilution MIC; details: 24 h
[25] = test system: STREPTOCOCCUS PYOGENES 2548 INDUC; assay: In vitro antibacterial activity, agar dilution MIC; details: 24 h
[26] = test system: STREPTOCOCCUS BOVIS A5169; assay: In vitro antibacterial activity, agar dilution MIC; details: 24 h
[27] = test system: PSEUDOMONAS CEPACIA 296I; assay: In vitro antibacterial activity, agar dilution MIC; details: Burkholderia cepacia; P. cepacia 296I; BHI agar, 35-37° C., 20 to 24 hours; read-out: MIC
[28] = test system: STREPTOCOCCUS PYOGENES 930 CONST; assay: In vitro antibacterial activity, agar dilution MIC; details: S. pyogenes 930 CONST, BHI agar, 35-37° C., 20 to 24 hours, read-out: MIC
[29] = test system: STAPHYLOCOCCUS AUREUS ATCC 6538P; assay: In vitro antibacterial activity, agar dilution MIC; details: ATCC6538P

Compound	MIC [1]	MIC [2]	MIC [3]	MIC [4]	MIC [5]	MIC [6]	MIC [8]	MIC [9]	MIC [10]	MIC [11]	MIC [12]	MIC [15]	MIC [16]	MIC [17]	MIC [19]	MIC [20]	MIC [21]	MIC [22]	MIC [23]	MIC [24]	also measured
CC[C@H]1OC(=O)[C@H](C)[C@@H](O[C@H]2C[C@@](C)(OC)[C@@H](O)[C@H](C)O2)[C@H](C)[C@@H](O[C@@H]2O[C@H](C)C[C@H](N(C)C)[C@H]2O)[C@](C)(O)C[C@@H](C)[C@@H](N(C)C)[C@H](C)[C@@H](O)[C@@]1(O)CNC [Compound 17, (9R)-9-deoxo-9-(N,N-dimethylamino)-21-(N-methylamino)-erythromycin A]	6.2 µg/mL (≈ 7.83 µM)	50 µg/mL (≈ 63.1 µM)	6.2 µg/mL (≈ 7.83 µM)	100 µg/mL (≈ 126 µM)	> 100 µg/mL	12.5 µg/mL (≈ 15.8 µM)	1.56 µg/mL (≈ 1.97 µM)	3.1 µg/mL (≈ 3.91 µM)	3.1 µg/mL (≈ 3.91 µM)	1.56 µg/mL (≈ 1.97 µM)	100 µg/mL (≈ 126 µM)	> 100 µg/mL	25 µg/mL (≈ 31.6 µM)	12.5 µg/mL (≈ 15.8 µM)	0.78 µg/mL (≈ 0.985 µM)	1.56 µg/mL (≈ 1.97 µM)	> 100 µg/mL	12.5 µg/mL (≈ 15.8 µM)	50 µg/mL (≈ 63.1 µM)	0.78 µg/mL (≈ 0.985 µM)	MIC ([7]; ATCC13048, E. aerogenes ATCC 13048, BHI agar, 35-37° C., 20 to 24 hours, read-out: MIC): 100 µg/mL (≈ 126 µM); MIC ([13]; 24 h): 50 µg/mL (≈ 63.1 µM); MIC ([14]; 24 h): > 100 µg/mL; MIC ([18]; S. aureus A5177, BHI agar, 35-37° C., 20 to 24 hours, read-out: MIC): > 100 µg/mL; MIC [25]: 50 µg/mL (≈ 63.1 µM); MIC [26]: 0.78 µg/mL (≈ 0.985 µM); MIC [27]: > 100 µg/mL; MIC [28]: > 100 µg/mL; MIC ([29]; S. aureus ATCC 6538P, BHI agar, 35-37° C., 20 to 24 hours, read-out: MIC): 12.5 µg/mL (≈ 15.8 µM)
CC[C@H]1OC(=O)[C@H](C)[C@@H](O[C@H]2C[C@@](C)(OC)[C@@H](O)[C@H](C)O2)[C@H](C)[C@@H](O[C@@H]2O[C@H](C)C[C@H](N(C)C)[C@H]2O)[C@](C)(O)C[C@@H](C)[C@@H](N(C)C)[C@H](C)[C@@H](O)[C@@]1(O)CN(C)C [Compound 18, (9R)-9,21-di-(N,N-dimethylamino)-9-deoxoerythromycin A]	1.56 µg/mL (≈ 1.94 µM)	6.2 µg/mL (≈ 7.69 µM)	1.56 µg/mL (≈ 1.94 µM)	100 µg/mL (≈ 124 µM)	> 100 µg/mL	3.1 µg/mL (≈ 3.85 µM)	0.78 µg/mL (≈ 0.968 µM)	1.56 µg/mL (≈ 1.94 µM)	0.39 µg/mL (≈ 0.484 µM)	0.2 µg/mL (≈ 0.248 µM)	12.5 µg/mL (≈ 15.5 µM)	> 100 µg/mL	12.5 µg/mL (≈ 15.5 µM)	3.1 µg/mL (≈ 3.85 µM)	0.1 µg/mL (≈ 0.124 µM)	0.2 µg/mL (≈ 0.248 µM)	> 100 µg/mL	3.1 µg/mL (≈ 3.85 µM)	6.2 µg/mL (≈ 7.69 µM)	0.2 µg/mL (≈ 0.248 µM)	MIC ([7]; ATCC13048, 24 h): 25 µg/mL (≈ 31 µM); MIC ([13]; E. coli JUHL, BHI agar, 35-37° C., 20 to 24 hours, read-out: MIC): 12.5 µg/mL (≈ 15.5 µM); MIC ([14]; P. stuartii CMX 640, BHI agar, 35-37° C., 20 to 24 hours): > 100 µg/mL; MIC ([18]; 24 h): 25 µg/mL (≈ 31 µM); MIC [25]: 25 µg/mL (≈ 31 µM); MIC [27]: > 100 µg/mL; MIC [28]: > 100 µg/mL; MIC ([29]; 24 h): 1.56 µg/mL (≈ 1.94 µM)
